What was measured:
Assay in all cases: relative viability (nuclei count vs DMSO), 5 days (fraction); higher = more cells survive
A-427 = system: A-427
Summary of the method: (§1)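 Each reported value is a median over duplicate plates. It expresses relative viability: treated-well nuclei count divided by vehicle-well nuclei count. Lung cancer cell lines in 1536-well plates were dosed by pin tool a day after seeding, alone with one drug or with a fixed anchor-drug dose plus five library-drug doses (not always all listed) in √10 steps, and nuclei were counted after 5 days.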

EPLC-272H = system: EPLC-272H
Summary of the method: as §1

HCC-15 = system: HCC-15
Summary of the method: as §1

LC-2-ad = system: LC-2-ad
Summary of the method: as §1

LK-2 = system: LK-2
Summary of the method: as §1

NCI-H1734 = system: NCI-H1734
Summary of the method: as §1

NCI-H1793 = system: NCI-H1793
Summary of the method: as §1

NCI-H1915 = system: NCI-H1915
Summary of the method: as §1

NCI-H1944 = system: NCI-H1944
Summary of the method: as §1

NCI-H2009 = system: NCI-H2009
Summary of the method: as §1

NCI-H2023 = system: NCI-H2023
Summary of the method: as §1

NCI-H2347 = system: NCI-H2347
Summary of the method: as §1

NCI-H322M = system: NCI-H322M
Summary of the method: as §1

NCI-H441 = system: NCI-H441
Summary of the method: as §1

NCI-H647 = system: NCI-H647
Summary of the method: as §1

NCI-H838 = system: NCI-H838
Summary of the method: as §1

RERF-LC-KJ = system: RERF-LC-KJ
Summary of the method: as §1

SW 1573 = system: SW 1573
Summary of the method: as §1

UMC-11 = system: UMC-11
Summary of the method: as §1

CN1CCN(CCOc2cc(OC3CCOCC3)c3c(Nc4c(Cl)ccc5c4OCO5)ncnc3c2)CC1 [Saracatinib] + CC1(C)CCC(c2ccc(Cl)cc2)=C(CN2CCN(c3ccc(C(=O)NS(=O)(=O)c4ccc(N[C@H](CCN5CCOCC5)CSc5ccccc5)c(S(=O)(=O)C(F)(F)F)c4)cc3)CC2)C1 [Navitoclax] (partner 0.5 µM)
relative viability (A-427; first compound 0.02 µM): 0.999
relative viability (A-427; first compound 0.2 µM): 0.854
relative viability (A-427; first compound 0.6325 µM): 1
relative viability (A-427; first compound 2 µM): 0.918
relative viability (EPLC-272H; first compound 0.02 µM): 1.19
relative viability (EPLC-272H; first compound 0.2 µM): 0.976
relative viability (EPLC-272H; first compound 0.6325 µM): 1.19
relative viability (EPLC-272H; first compound 2 µM): 0.999
relative viability (HCC-15; first compound 0.02 µM): 0.655
relative viability (HCC-15; first compound 0.2 µM): 0.545
relative viability (HCC-15; first compound 0.6325 µM): 0.65
relative viability (HCC-15; first compound 2 µM): 0.558
relative viability (LC-2-ad; first compound 0.02 µM): 0.453
relative viability (LC-2-ad; first compound 0.6325 µM): 0.448
relative viability (LC-2-ad; first compound 2 µM): 0.348
relative viability (LK-2; first compound 0.02 µM): 0.795
relative viability (LK-2; first compound 0.2 µM): 0.781
relative viability (LK-2; first compound 0.6325 µM): 0.71
relative viability (LK-2; first compound 2 µM): 0.489
relative viability (NCI-H1734; first compound 0.02 µM): 0.854
relative viability (NCI-H1734; first compound 0.6325 µM): 0.767
relative viability (NCI-H1734; first compound 2 µM): 0.697
relative viability (NCI-H1793; first compound 0.02 µM): 0.456
relative viability (NCI-H1793; first compound 0.2 µM): 0.402
relative viability (NCI-H1793; first compound 0.6325 µM): 0.401
relative viability (NCI-H1793; first compound 2 µM): 0.201
relative viability (NCI-H1915; first compound 0.02 µM): 0.813
relative viability (NCI-H1915; first compound 0.2 µM): 0.456
relative viability (NCI-H1915; first compound 0.6325 µM): 0.8
relative viability (NCI-H1915; first compound 2 µM): 0.757
relative viability (NCI-H1944; first compound 0.02 µM): 1.14
relative viability (NCI-H1944; first compound 0.6325 µM): 0.974
relative viability (NCI-H1944; first compound 2 µM): 0.718
relative viability (NCI-H2009; first compound 0.02 µM): 1.15
relative viability (NCI-H2009; first compound 0.2 µM): 1.07
relative viability (NCI-H2009; first compound 0.6325 µM): 1.15
relative viability (NCI-H2009; first compound 2 µM): 1.16
relative viability (NCI-H2023; first compound 0.02 µM): 1.04
relative viability (NCI-H2023; first compound 0.2 µM): 0.808
relative viability (NCI-H2023; first compound 0.6325 µM): 1.02
relative viability (NCI-H2023; first compound 2 µM): 0.987
relative viability (NCI-H2347; first compound 0.02 µM): 0.725
relative viability (NCI-H2347; first compound 0.2 µM): 0.686
relative viability (NCI-H2347; first compound 0.6325 µM): 0.862
relative viability (NCI-H2347; first compound 2 µM): 0.599
relative viability (NCI-H322M; first compound 0.02 µM): 1.28
relative viability (NCI-H322M; first compound 0.2 µM): 1.29
relative viability (NCI-H322M; first compound 0.6325 µM): 1.31
relative viability (NCI-H322M; first compound 2 µM): 1.13
relative viability (NCI-H441; first compound 0.02 µM): 0.566
relative viability (NCI-H441; first compound 0.2 µM): 0.681
relative viability (NCI-H441; first compound 0.6325 µM): 0.832
relative viability (NCI-H441; first compound 2 µM): 0.624
relative viability (NCI-H647; first compound 0.02 µM): 1.15
relative viability (NCI-H647; first compound 0.2 µM): 0.959
relative viability (NCI-H647; first compound 0.6325 µM): 1.18
relative viability (NCI-H647; first compound 2 µM): 0.764
relative viability (NCI-H838; first compound 0.02 µM): 1.15
relative viability (NCI-H838; first compound 0.2 µM): 1.02
relative viability (NCI-H838; first compound 0.6325 µM): 1.03
relative viability (NCI-H838; first compound 2 µM): 0.918
relative viability (RERF-LC-KJ; first compound 0.02 µM): 0.817
relative viability (RERF-LC-KJ; first compound 0.2 µM): 1.17
relative viability (RERF-LC-KJ; first compound 0.6325 µM): 0.959
relative viability (RERF-LC-KJ; first compound 2 µM): 0.934
relative viability (SW 1573; first compound 0.02 µM): 0.958
relative viability (SW 1573; first compound 0.2 µM): 0.969
relative viability (SW 1573; first compound 0.6325 µM): 0.919
relative viability (SW 1573; first compound 2 µM): 0.838
relative viability (UMC-11; first compound 0.02 µM): 0.318
relative viability (UMC-11; first compound 0.6325 µM): 0.295
relative viability (UMC-11; first compound 2 µM): 0.267
